Biological target: T1, Sos1 (Homo sapiens, UniProt Q07889)
T1 construct: catalytic part of Sos1 (residues 564–1049)
T1 sequence (Q07889 564-1049): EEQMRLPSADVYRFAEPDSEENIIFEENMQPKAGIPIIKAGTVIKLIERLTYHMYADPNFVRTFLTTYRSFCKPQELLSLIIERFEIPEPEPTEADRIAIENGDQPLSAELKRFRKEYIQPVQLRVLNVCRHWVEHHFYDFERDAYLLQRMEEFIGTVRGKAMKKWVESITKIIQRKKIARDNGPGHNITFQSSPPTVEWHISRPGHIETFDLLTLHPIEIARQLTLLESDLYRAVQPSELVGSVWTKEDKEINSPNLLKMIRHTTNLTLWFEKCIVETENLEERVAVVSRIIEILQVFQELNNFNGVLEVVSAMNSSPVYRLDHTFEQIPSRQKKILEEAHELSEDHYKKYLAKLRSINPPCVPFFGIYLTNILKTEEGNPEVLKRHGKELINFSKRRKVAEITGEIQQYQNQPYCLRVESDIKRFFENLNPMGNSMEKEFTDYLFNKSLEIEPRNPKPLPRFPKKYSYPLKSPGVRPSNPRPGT
Experiment: fluorescence-based thermal shift assay (SYPRO Orange) with Langmuir Kd fit; supported by BLI of Sos1/H-Ras complex dissociation (KDapp […])
Type: binding

Kd: 17.5 ± 2.2 mM
SMILES: O=P(O)(O)OC[C@H]1OC(O)(COP(=O)(O)O)[C@@H](O)[C@@H]1O (stereo partly shown) [Fru1,6bisP]

From paper PMC5640605, “Fructose-1,6-bisphosphate couples glycolytic flux to activation of Ras” (Nature Communications, 2017)
